The values below come from article PMC5339874, “Fluorene-9-bisphenol is anti-oestrogenic and may cause adverse pregnancy outcomes in mice” (Nature Communications, 2017).

Data set [1] deals with T1, human oestrogen receptor α (Homo sapiens, UniProt P03372).
T1 construct: expressed in transfected cells; host or cells: JEG-3 human choriocarcinoma cells
T1 sequence (P03372 1-595): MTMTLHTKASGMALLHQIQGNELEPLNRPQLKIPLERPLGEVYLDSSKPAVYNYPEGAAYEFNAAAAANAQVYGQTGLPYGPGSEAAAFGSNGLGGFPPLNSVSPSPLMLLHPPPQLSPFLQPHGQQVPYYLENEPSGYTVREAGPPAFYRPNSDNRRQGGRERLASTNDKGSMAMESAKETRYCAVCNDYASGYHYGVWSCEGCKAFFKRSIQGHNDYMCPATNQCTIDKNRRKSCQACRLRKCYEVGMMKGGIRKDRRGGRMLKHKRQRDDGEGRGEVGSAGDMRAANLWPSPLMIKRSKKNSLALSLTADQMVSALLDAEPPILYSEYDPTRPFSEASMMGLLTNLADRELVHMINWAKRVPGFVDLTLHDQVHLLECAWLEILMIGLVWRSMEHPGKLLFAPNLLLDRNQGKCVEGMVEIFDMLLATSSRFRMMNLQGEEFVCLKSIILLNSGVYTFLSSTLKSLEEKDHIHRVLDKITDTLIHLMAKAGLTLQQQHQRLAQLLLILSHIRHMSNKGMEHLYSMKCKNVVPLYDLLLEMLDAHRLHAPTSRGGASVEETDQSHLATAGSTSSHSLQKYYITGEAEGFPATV
The data set can be described thus: Dual-luciferase reporter assay, full-length ERα and ERE in JEG-3 cells. The format is cell-based. How it is done:
Dual-luciferase reporter assays were carried out primarily according to the method described in a previous study. In short, full-length sequences of human oestrogen receptor α and β were amplified by RT-PCR using mRNA from MCF-7 (Supplementary Table 3), and inserted into a pSVSPORT1 (Invitrogen); the resulting constructs were termed pSVhERα and pSVhERβ. A reporter plasmid containing ERE was constructed by inserting four tandem repeats of an ERE of Xenopus laevis vitellogenin A2 into a pGL4.23 vector (Promega), and was termed pGL4-ERE-luc. […] The Renilla LUC control reporter construct pGL4.74-TK was purchased from Promega (Madison, WI). […] The assays were performed in quadruplicate, and the results were expressed as the fold induction of the control after normalization against Renilla luciferase activity. Sigmoidal dose-effect curves were calculated using the GraphPad Prism 4 software. The IC50 values were calculated on the basis of the sigmoidal dose-effect curves. […]
(In a reporter assay the amount or activity of a reporter protein is the signal.)

Data set [2] is described as follows: Analysis of BHPF in human serum (GC–MS). It counts as in vivo. From the text:
In China, college students usually undergo a physical examination before graduation. The volunteers in this study were senior students who were undergoing a physical examination in Beijing. Fifty male and 50 female healthy volunteers (mean age, 23.5±1.2 years) who habitually used plastic water bottles were randomly recruited to participate in this study in June 2015, after appropriate ethical approval was received from the Human Ethics Committee of the Peking University Peoples' Hospital. Each participant provided informed consent and volunteered to give one 10-ml random sample of blood. Fasting blood was collected at Peking University Hospital Medical Center with vacutainer blood collection device (Chengwu Yongkang Medical Products Ltd., China) between 8 and 9 h. […] The blood was collected directly into plain 10-ml glass vacutainer tubes and spun down 30 min later for serum preparation. The serum samples were stored in glass tubes at −80 °C until analysis. The samples were fortified with 5 ng of surrogate standard BHPF-d7, and the pH was adjusted to 6.5 with ammonium acetate. β-Glucuronidase/arylsulfatase (20 μl; Sigma-Aldrich, St Louis, MO) was added to the samples, and they were incubated at 37 °C for 20 h to allow deglucuronidation. […]

In general, pIC50 refers to the IC50 on a negative log10 scale, so that one unit is a factor of ten.

Molecules are shown by their SMILES. pIC50: −log10 of the molar value. Like-named read-outs stand apart in the source and are kept apart here.

With `Oc1ccc(C2(c3ccc(O)cc3)c3ccccc3-c3ccccc32)cc1` [BHPF, 9,9-bis(4-hydroxyphenyl)-fluorene], in data set [1] (coexisted with 1 × 10^−9 M E2, read-out: IC50, anti-oestrogenic activity), the pIC50 is 6.96. In addition, in data set [1] (vs 1 nM E2, read-out: IC50 converted to mass concentration (converted)), the IC50 was 109 nM. Moreover, the “maximal serum BHPF level” value in data set [2] (human volunteers) was found to be 0.7 ng/mL. In addition, the “mean serum BHPF level” value in data set [2] (volunteers with detectable BHPF) is 0.34 ± 0.21 ng/mL.
